Results on 2 compounds are retold here after patent US20130143965A1, “MICROBI[…] AND STABLE SOLUTIONS OF GAMMA-HYDRO[…] FOR THE TREATMENT OF NARCOLEPSY” (Jazz Pharmaceuticals, Inc., priority 1998, published 2013).

The conditions of data set [1]: alcohol dependent patients, cited from earlier work.
Data set [2] is described as follows: Solubility of sodium oxybate (GHB) in aqueous solution versus pH. The settings on record: for State of 1000 mg/cc solution: pH unadjusted.
The nature of data set [3]: Safety assessment in the pharmacokinetic study (adverse experiences, physical examination). The format is in vivo, human. The protocol:
Follow-up occurred within 48 h after the last blood sample had been collected. An abbreviated physical examination which included vital signs measurement was performed. Adverse experiences and concomitant medication use, if any, were assessed. Any ongoing adverse experiences and clinically important findings in a patient were followed to the investigator's and/or sponsor's satisfaction before the patient was discharged from the study.
An adverse experience are any undesirable event experienced by a patient or volunteer whether or not considered drug-related by the investigator. An undesirable event can be, but is not limited to, subjective symptoms experienced by a patient or, objective findings such as significant clinical laboratory abnormalities. Adverse experience is considered synonymous with the term “adverse event”.
The investigators report in detail all adverse experiences and symptoms that occurred during or following the course of trial drug administration for up to 2 days. Included in the description was the nature of the sign or symptom; the date of onset; date or resolution (duration); the severity; the relationship to trial treatment or other therapy; the action taken, if any; and the outcome.
Safety Analyses: Results of physical examinations, vital signs, clinical laboratory data were summarized in tabular form and presented by patient number. […]

Data set [4] can be described thus: Pharmacokinetics of GHB after two consecutive 3 g oral doses in narcoleptic patients. The format is in vivo, human. The settings on record: for Cmax: po, read-out: maximum GHB concentration (Cmax), mean ±SD. The protocol:
The objective of this study was to assess the pharmacokinetics of GHB after oral administration of two consecutive single doses of GHB (3 g/dose; patients generally ingested the first dose of this medication prior to bedtime and the second dose from 2.5 to 4.0 h later) to narcoleptic patients who are maintained on a chronic regimen of GHB.
This pharmacokinetic study was conducted as an open-label, single-center investigation in 6 narcoleptic patients. The study design is summarized as follows:
Before oral administration of the first GHB dose, an indwelling catheter was placed in an arm vein and a baseline blood sample was collected. Each patient then ingested a 3 g dose of GHB before bedtime. Another 3 g GHB dose was administered 4 h after the first dose. Twenty-one sequential blood samples were collected over 12 h (starting at 10 min after the first dose and ending at 8 h after the second dose). Upon completion of the treatment phase, a follow-up physical examination which included the measurement of vital signs was performed on each patient within 48 h after the last blood sample. A detailed description of the trial methodology is presented in Section IV.
All patients were hospitalized from approximately four hours prior to first GHB dosing (around 6 p.m.) until the end of the treatment period (around 10 a.m. the next morning). Patients ate their dinner at the clinical research unit soon after arrival and fasted until breakfast next morning. At least three hours elapsed between the completion of dinner and the administration of the first GHB dose. An indwelling catheter was placed in an arm vein of each patient for blood sampling at approximately 30 min and 1 h before the first GHB dose and a baseline blood sample (5 mL) was collected.
The first GHB dose (3 g) was administered at around 10 p.m. Dosing of individual patients were staggered. The second GHB dose was administered at 4 h after the first GHB dose (i.e. immediately after the 4 h blood sample). The exact dosing times in each patient were recorded on appropriate CRF pages. Blood samples (5 mL each) were collected through the indwelling catheter into heparinized tubes at 0.2, 0.4, 0.6, 0.8, 1, 1.5, 2, 3, 4, 4.2, 4.4, 4.6, […], 5, 5.5, […], 7, 8, 10, and 12 h after the first GHB dose. Blood samples were processed according to the procedures described herein. Patients were monitored for adverse experiences throughout the study according to the specific procedures.
Dose Administration: The investigator or designee prepared the oral solution for dosing within 30 min prior to the first oral administration to individual patients. The contents of one twin-pouch was emptied into a dosing cup to which two ounces of water were added. After replacing the lid of the dosing cup, it was gently shaken to dissolve the GHB and excipient in water. The GHB solution was ingested in its entirety. Likewise, the second GHB dosing solution was prepared in the same manner and was ingesting in its entirety at 4 h after the first GHB dose.
Plasma samples were analyzed for GHB by the Department of Bioanalytical Chemistry (Covance (previously known as Hazelton Corning), Madison, Wis.) A gas chromatographic method with mass selective detection (GC-MSD) was used in the analysis.
Pharmacokinetic Analysis: Pharmacokinetic parameters were determined for individual sets of plasma GHB concentration vs. time data using the non-compartmental routine in WinNonlin Version 1.1. The peak GHB concentrations (Cmax) and the times of their respectively occurrences (tmax) were observed values. Terminal half-life (T1/2) was obtained by log-linear regression analysis of the terminal phase of concentration vs. time curves. The area under the curve (AUCinf) and the area under the first moment curve (AUMCinf) were calculated by the linear trapezoidal rule up to the last determined concentration and included extrapolated areas to time infinity. Apparent oral clearance (CL/F) was calculated as Dose/AUCinf. […]

Molecules are shown by their SMILES. Entries after “also recorded” stand apart in the source; their conditions may differ. Like-named read-outs stand apart in the source and are kept apart here. A value given as a limit tells only on which side of the number the result lay.

With `O=C(O)CCCO` [GHB, gamma-hydroxybutyrate], the apparent oral clearance in data set [1] (25 mg/kg dose (Ferrara, 1992)) is 8.1 ± 4.8 mL/min/kg; in data set [1] (dose of 50 mg/kg (Ferrara, 1992)) it was 5.3 ± 2.2 mL/min/kg. In addition, the solubility in data set [2] (aqueous medium, 25 °C, thermodynamic from solid) is not above 750 mg/mL; in data set [2] (aqueous medium, 100 °C, thermodynamic from solid) it was not below 1000 mg/mL. For the same compound, the “adverse experiences / tolerability” value in data set [3] (narcoleptic patients, two 3 g oral doses) is reported as “No adverse experiences were reported; also recorded: well tolerated”. In addition, in data set [3] (screen versus follow-up, per individual patient), the “follow-up physical examination results” value was “did not identify any changes attributable to GHB”. Besides, in data set [4] (Subject 101 after the second 3 g GHB dose), the “highest plasma GHB concentration observed in the study” value came out at 125.0 µg/mL. The “mean observed time to maximum concentration” value in data set [4] (after the first GHB dose) is 40 ± 6 min; in data set [4] (after the second GHB dose), 36 ± 7 min. For the same compound, in data set [4] (after the second GHB dose (10 h after the first GHB dose)), the “time by which plasma GHB concentrations were no longer detectable” value is on record as not above 6 h. The Tmax in data set [4] (human, plasma, oral, 3 g, after dosing (discussion)) is approximately 40 min. In addition, the concentration at 4 h in data set [4] (human, plasma, oral, 3 g, at h 4 after the first GHB dose, in three of six patients, read-out: residual GHB levels) was approximately 15 µg/mL. The half-life in data set [4] (human, plasma, oral, narcoleptic patients, read-out: elimination half-life of GHB) was less than 60 min; in data set [4] (human, plasma, oral, terminal phase of the second GHB dose, read-out: mean GHB T1/2 (elimination half-life)) it was 53 ± 19 min. In addition, the Cmax turned out to be 62.8 ± 27.4 µg/mL in data set [4] (human, plasma, 3 g, first 3 g oral GHB dose, 6 narcoleptic patients) and 91.2 ± 25.6 µg/mL in data set [4] (human, plasma, 3 g, second 3 g oral GHB dose (4 h after the first)). In addition, in data set [4] (human, plasma, two 3 g oral doses 4 h apart, read-out: mean AUCinf (converted)), the AUC(0-inf) was 296 µg·h/mL. In addition, the CL/F in data set [4] (human, plasma, two 3 g oral doses 4 h apart, read-out: mean CL/F (apparent oral clearance)) came to 4.2 ± 1 mL/min/kg. The MRT inf in data set [4] (human, plasma, two 3 g oral doses 4 h apart, read-out: mean MRTinf (converted)) is 249 min. Besides, in data set [4] (human, plasma, two 3 g oral doses 4 h apart, read-out: mean Vz/F), the Vd/F stood at 0.307 ± 0.096 L/kg. In addition, the “mean GHB T1/2 (elimination half-life)” value in data set [4] (terminal phase of the second GHB dose) is on record as approximately 35 min.

On to `O=C(O)CCCO` [Sodium Oxybate, sodium oxybate], for which the solubility result in data set [2] (500 mg/cc with Malic Acid at pH 5.0) is “not soluble”; in data set [2] (aqueous medium, 25 °C, pH 4, aqueous buffer, thermodynamic from solid), 450 mg/mL; in data set [2] (aqueous medium, 25 °C, pH 5, aqueous buffer, thermodynamic from solid) it was 500 mg/mL; in data set [2] (aqueous medium, 25 °C, pH 6, aqueous buffer, thermodynamic from solid), 600 mg/mL; in data set [2] (aqueous medium, 25 °C, pH 6.8, aqueous buffer, thermodynamic from solid), 750 mg/mL; in data set [2] (aqueous medium, 25 °C, pH 10.3, thermodynamic from solid), not below 750 mg/mL. The compound also gave a solubility in data set [2] (aqueous medium, 65 °C, thermodynamic from solid) of 1000 mg/mL. Besides, the “Maxium Solubility” value in data set [2] (pH 4 (HCl), 25°) came to 450 mg/cc; in data set [2] (pH 5 (HCl), 25°), 500 mg/cc; in data set [2] (pH 6 (HCl), 25°) it was 600 mg/cc; in data set [2] (pH 6.8 (HCl), 25°), 750 mg/cc; in data set [2] (pH 10.3, 25°), 750 mg/cc +; in data set [2] (pH (unadjusted), 65° Soluble, 25° Gel) it was 1000 mg/cc. Further, the “State of 1000 mg/cc solution” value in data set [2] (25°) is listed as “Gel”; in data set [2] (65°) it was “Soluble,”.

One may read the solubility as how much of the substance goes into solution per volume. What is called Tmax is the time at which the peak concentration occurs.
